Results as given in patent US10251395B2, “Substituted furano-/thienocycloalkylamino-2-pyrimidine derivatives and use thereof for controlling undesired plant growth” (Bayer CropScience Aktiengesellschaft, priority 2015, dated 2019).

Experiments:
Setaria viridis [1] = assay: Pre-emergence herbicidal effect; format: in vivo; conditions: scored visually after 3 weeks
Procedure, shortened: (§1)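 Pre-em soil-surface spray; sandy loam, seeds covered with soil. WP/EC, aq. suspension/emulsion, 600–800 L/ha, +0.2% wetting agent. GH 3 wk; visual % activity vs untreated (100% = dead).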

Matricaria inodora [2] = assay: Pre-emergence herbicidal effect; format: in vivo; conditions: scored visually after 3 weeks
Procedure, shortened: as §1

Viola tricolor [3] = assay: Pre-emergence herbicidal effect; format: in vivo; conditions: scored visually after 3 weeks
Procedure, shortened: as §1

Echinochloa crus-galli [4] = assay: Pre-emergence herbicidal effect; format: in vivo; conditions: scored visually after 3 weeks
Procedure, shortened: as §1

Alopecurus myosuroides = assay: Pre-emergence herbicidal effect; format: in vivo; conditions: Dosage 320 g/ha, scored visually after 3 weeks
Procedure, shortened: as §1

Stellaria media [5] = assay: Pre-emergence herbicidal effect; format: in vivo; conditions: scored visually after 3 weeks
Procedure, shortened: as §1

Polygonum convolvulus [6] = assay: Pre-emergence herbicidal effect; format: in vivo; conditions: scored visually after 3 weeks
Procedure, shortened: as §1

Amaranthus retroflexus [7] = assay: Pre-emergence herbicidal effect; format: in vivo; conditions: scored visually after 3 weeks
Procedure, shortened: as §1

Abutilon theophrasti [8] = assay: Pre-emergence herbicidal effect; format: in vivo; conditions: Dosage 320 g/ha, scored visually after 3 weeks
Procedure, shortened: as §1

Veronica persica [9] = assay: Pre-emergence herbicidal effect; format: in vivo; conditions: scored visually after 3 weeks
Procedure, shortened: as §1

Viola tricolor [10] = assay: Post-emergence herbicidal effect; format: in vivo; conditions: assessed visually after about 3 weeks vs untreated controls
Procedure, shortened: (§2)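 Seedlings at the one-leaf stage, about 2 to 3 weeks old, are sprayed on their foliage with compound suspended or emulsified in water containing 0.2% wetting agent. After roughly 3 weeks in the greenhouse, injury is estimated visually on a 0 to 100% scale.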

Echinochloa crus-galli [11] = assay: Post-emergence herbicidal effect; format: in vivo; conditions: 320 g/ha, assessed visually after about 3 weeks vs untreated controls
Procedure, shortened: as §2

Stellaria media [12] = assay: Post-emergence herbicidal effect; format: in vivo; conditions: assessed visually after about 3 weeks vs untreated controls
Procedure, shortened: as §2

Amaranthus retroflexus [13] = assay: Post-emergence herbicidal effect; format: in vivo; conditions: assessed visually after about 3 weeks vs untreated controls
Procedure, shortened: as §2

Abutilon theophrasti [14] = assay: Post-emergence herbicidal effect; format: in vivo; conditions: assessed visually after about 3 weeks vs untreated controls
Procedure, shortened: as §2

Veronica persica [15] = assay: Post-emergence herbicidal effect; format: in vivo; conditions: 320 g/ha, assessed visually after about 3 weeks vs untreated controls
Procedure, shortened: as §2

logP (HCOOH) = format: physicochemical
From the text: Table 2 (physicochemical characterization of selected synthesis examples)

Lolium multiflorum = assay: Pre-emergence herbicidal effect; format: in vivo; conditions: Dosage 320 g/ha, scored visually after 3 weeks
Procedure, shortened: as §1

Polygonum convolvulus [16] = assay: Post-emergence herbicidal effect; format: in vivo; conditions: 320 g/ha, assessed visually after about 3 weeks vs untreated controls
Procedure, shortened: as §2

Setaria viridis [17] = assay: Post-emergence herbicidal effect; format: in vivo; conditions: 320 g/ha, assessed visually after about 3 weeks vs untreated controls
Procedure, shortened: as §2

Matricaria inodora [18] = assay: Post-emergence herbicidal effect; format: in vivo; conditions: assessed visually after about 3 weeks vs untreated controls
Procedure, shortened: as §2

Ipomoea purpurea = assay: Post-emergence herbicidal effect; format: in vivo; conditions: assessed visually after about 3 weeks vs untreated controls
Procedure, shortened: as §2

| SMILES | SETVI pre-emergence efficacy (herbicidal activity) (Setaria viridis [1]; Dosage 320 g/ha) [%] | MATIN pre-emergence efficacy (herbicidal activity) (Matricaria inodora [2]; Dosage 80 g/ha) [%] | MATIN pre-emergence efficacy (herbicidal activity) (Matricaria inodora [2]; Dosage 320 g/ha) [%] | VIOTR pre-emergence efficacy (herbicidal activity) (Viola tricolor [3]; Dosage 80 g/ha) [%] | VIOTR pre-emergence efficacy (herbicidal activity) (Viola tricolor [3]; Dosage 320 g/ha) [%] | ECHCG pre-emergence efficacy (herbicidal activity) (Echinochloa crus-galli [4]; Dosage 320 g/ha) [%] | ALOMY pre-emergence efficacy (herbicidal activity) (Alopecurus myosuroides) [%] | STEME pre-emergence efficacy (herbicidal activity) (Stellaria media [5]; Dosage 80 g/ha) [%] | STEME pre-emergence efficacy (herbicidal activity) (Stellaria media [5]; Dosage 320 g/ha) [%] | POLCO pre-emergence efficacy (herbicidal activity) (Polygonum convolvulus [6]; Dosage 80 g/ha) [%] | AMARE pre-emergence efficacy (herbicidal activity) (Amaranthus retroflexus [7]; Dosage 320 g/ha) [%] | VERPE pre-emergence efficacy (herbicidal activity) (Veronica persica [9]; Dosage 80 g/ha) [%] | VERPE pre-emergence efficacy (herbicidal activity) (Veronica persica [9]; Dosage 320 g/ha) [%] | post-emergence efficacy VIOTR (Viola tricolor [10]; 320 g/ha) [%] | post-emergence efficacy STEME (Stellaria media [12]; 320 g/ha) [%] | post-emergence efficacy AMARE (Amaranthus retroflexus [13]; 320 g/ha) [%] | post-emergence efficacy ABUTH (Abutilon theophrasti [14]; 320 g/ha) [%] | logP (HCOOH) (logP (HCOOH)) | also measured |
| --- | --- | --- | --- | --- | --- | --- | --- | --- | --- | --- | --- | --- | --- | --- | --- | --- | --- | --- | --- |
| Cc1cc2c(s1)C(Nc1ncc3c(n1)CCCC3=O)CCC2 (racemic) [compound 8] | 100 | 100 | 100 | 100 | 100 | 100 | 80 | 80 | 100 | 100 | 100 | 100 | 100 | 90 | 90 | 90 | 80 | – | SETVI pre-emergence efficacy (herbicidal activity) (Setaria viridis [1]; Dosage 80 g/ha): 90%; ECHCG pre-emergence efficacy (herbicidal activity) (Echinochloa crus-galli [4]; Dosage 80 g/ha): 90%; POLCO pre-emergence efficacy (herbicidal activity) (Polygonum convolvulus [6]; Dosage 320 g/ha): 100%; AMARE pre-emergence efficacy (herbicidal activity) (Amaranthus retroflexus [7]; Dosage 80 g/ha): 100%; ABUTH pre-emergence efficacy (herbicidal activity) (Abutilon theophrasti [8]): 100%; post-emergence efficacy ECHCG (Echinochloa crus-galli [11]): 100%; post-emergence efficacy STEME (Stellaria media [12]; 80 g/ha): 80%; post-emergence efficacy VERPE (Veronica persica [15]): 90% |
| Nc1nc(NC2CCc3ccsc32)ncc1[N+](=O)[O-] (racemic) [compound 32] | – | – | – | – | – | – | – | – | – | – | – | – | – | – | – | – | – | solid; m.p.: 189.5° C.; logP (HCOOH): 1.53; | – |
| CC(=O)c1cnc(N[C@@H]2CCCc3sccc32)nc1C [compound 71] | – | – | – | – | – | – | – | – | – | – | – | – | – | – | – | – | – | solid; logP (HCOOH): 2.98; 1H NMR (CDCl3, 400 MHZ, δ in ppm): ): 1.85 (m, 3H, | – |
| CO/N=C(/C)c1cnc(NC2CCCc3sccc32)nc1N (racemic) [compound 292] | 100 | 80 | 100 | 100 | 100 | 100 | 100 | 100 | 100 | 70 | 100 | 100 | 100 | 80 | 90 | 80 | 80 | – | LOLMU pre-emergence efficacy (herbicidal activity) (Lolium multiflorum): 70%; post-emergence efficacy POLCO (Polygonum convolvulus [16]): 30% |
| Cc1nc(NC2CCCc3c(C)sc(C)c32)nc(N)c1C#N (racemic) [compound 64] | – | – | – | – | – | – | – | – | – | – | – | – | – | – | – | – | – | solid, logP (HCOOH): 2.71; 1H NMR (CDCl3, 400 MHZ, δ in ppm): 1.75 (m, 3H, 3H | – |
| Cc1cc2c(s1)CCCC2Nc1ncc(S(=O)(=O)C(C)(C)C)c(N)n1 (racemic) [compound 76] | – | – | – | – | – | – | – | – | – | – | – | – | – | – | – | – | – | solid; logP (HCOOH): 3.01; 1H NMR (CDCl3, 400 MHZ, δ in ppm): ): 1.40 (s, 9H, | – |
| CC(=NO)c1cnc(NC2CCCc3sc(C)cc32)nc1N (racemic) [compound 341] | 100 | 100 | 100 | 100 | 100 | 100 | 70 | 100 | 100 | 70 | 100 | 100 | 100 | 90 | 60 | 90 | 90 | – | SETVI pre-emergence efficacy (herbicidal activity) (Setaria viridis [1]; Dosage 80 g/ha): 90%; ECHCG pre-emergence efficacy (herbicidal activity) (Echinochloa crus-galli [4]; Dosage 80 g/ha): 60%; POLCO pre-emergence efficacy (herbicidal activity) (Polygonum convolvulus [6]; Dosage 320 g/ha): 100%; AMARE pre-emergence efficacy (herbicidal activity) (Amaranthus retroflexus [7]; Dosage 80 g/ha): 100%; ABUTH pre-emergence efficacy (herbicidal activity) (Abutilon theophrasti [8]): 70%; post-emergence efficacy SETVI (Setaria viridis [17]): 60%; post-emergence efficacy MATIN (Matricaria inodora [18]; 80 g/ha): 60%; post-emergence efficacy MATIN (Matricaria inodora [18]; 320 g/ha): 90%; post-emergence efficacy VIOTR (Viola tricolor [10]; 80 g/ha): 90%; post-emergence efficacy ECHCG (Echinochloa crus-galli [11]): 70%; post-emergence efficacy AMARE (Amaranthus retroflexus [13]; 80 g/ha): 80%; post-emergence efficacy PHBPU (Ipomoea purpurea; 80 g/ha): 80%; post-emergence efficacy PHBPU (Ipomoea purpurea; 320 g/ha): 90%; post-emergence efficacy ABUTH (Abutilon theophrasti [14]; 80 g/ha): 80%; post-emergence efficacy VERPE (Veronica persica [15]): 100% |
| CCCS(=O)(=O)c1cnc(NC2CCCc3sccc32)nc1N (stereo not drawn) [compound 37, 5-Propylsulfonyl-N2-(4,5,6,7-tetrahydrobenzothiophen-4-yl)pyrimidine-2,4-diamine] | – | – | – | – | – | – | – | – | – | – | – | – | – | – | – | – | – | – | chromatographic logP (logP (HCOOH); HCOOH (formic acid)): 2.33 |
